Laboratory results from a melting point compilation (Tetko et al.).

| SMILES | melting point [°C] |
| --- | --- |
| Nc1nc(-c2ccc3c(c2)CCO3)cs1 | 173 to 175 |
| ON=Cc1ccc(OCc2ccncc2)cc1 | 163 to 165 |
| COc1cc(/C=C/C(=O)O)ccc1OCc1c(C)noc1C | 110 to 112 |
| N#CC1=C(N)N2Cc3ccccc3CC2C1=O (stereo not given) | 307 to 309 |
| O=C(Nc1cccc(Br)n1)c1ccccc1 | 84 to 86 |
| Cc1cccc(NS(=O)(=O)c2ccc(N)cc2)n1 | 223 to 225 |
| Nc1c(C(=O)O)ccc(Cl)c1Cl | 235 to 237 |
| O=C(O)c1cc(S(=O)(=O)Cl)c(F)cc1Br | 148 to 150 |
| Cc1cccc([N+](=O)[O-])c1F | 19 to 21 |
| CCOC(=O)CCc1nc(CC(=O)NC)no1 | 84 to 86 |
| Cc1cccc2[nH]c(CC#N)nc12 | 158 to 160 |
| CCOCCOc1ccc(Br)cc1C=O | 28 to 30 |
| Nc1ccc2c(c1)C(=O)NC2 | 237 to 239 |
| CC(Br)C(=O)c1ccc(Oc2ccccc2)cc1 (stereo not given) | 86 to 88 |
| Nc1nc(N)nc(CO)n1 | 269 to 271 |
| O=C(O)Cc1cccc2sccc12 | 127 to 129 |
| c1cc2c(cn1)NCCCN2 | 121 to 123 |
| O=C1NCCNC1c1cccc(Br)c1 (stereo not given) | 117 to 119 |
| O=C(O)C1=NN(Cc2ccccc2)C(=O)CC1 | 179 to 181 |
| Nc1nnc(Cc2ccsc2)s1 | 177 to 179 |
| O=C(O)CC(Br)C(=O)c1ccccc1 (stereo not given) | 128 to 130 |
| CC(=O)Nc1ccc(S(=O)(=O)N2CCC(=NO)CC2)cc1 | 200 to 202 |
| Nc1cc(-c2cc(F)cc(Br)c2)[nH]n1 | 104 to 106 |
| O=C(O)c1c[nH]c2ccc(Br)cc12 | 238 to 240 |
| NCc1cnn(-c2cccc(Cl)c2)c1 | 88 to 90 |
| O=C(O)C1(S(=O)(=O)c2ccc(Cl)cc2)CCCC1 | 83 to 85 |
| O=C1CCc2[nH]c3ccccc3c2C1 | 129 to 131 |
| Nc1cccc(Br)c1CO | 94 to 96 |

| SMILES | melting point [°C] |
| --- | --- |
| Nc1cc(Br)c(F)cc1Cl | 71 to 73 |
| Cc1cc(C)c2c(-c3ccccc3)nc(S)n2n1 | 328 to 330 |
| NNc1cc(C(F)(F)F)nc(-c2ccccn2)n1 | 169 to 171 |
| Cc1cc2cc(Br)ccc2s1 | 69 to 71 |
| O=C(COc1ccc2c(c1)CCC2)c1ccc(Cl)c(Cl)c1 | 89 to 91 |
| Cc1ccc(S(=O)(=O)NCCC(=O)O)cc1C | 126 to 128 |
| CNS(=O)(=O)c1ccc(-c2ccc(Cl)c(Cl)c2)c(C(=O)O)c1 | 193 to 195 |
| O=C(O)CCC(=O)N1CCC(c2ccccc2)=N1 | 182 to 184 |
| O=C(O)c1c2c(nc3ccccc13)C(=Cc1cccc(Cl)c1Cl)CCC2 | 294 to 296 |
| Clc1cc(NCC2CC2)ncn1 | 98 to 100 |
| O=C(O)c1cc(-c2ccc(Cl)s2)nc2ccccc12 | 242 to 244 |
| CN1CCCNc2nc3ccccc3nc21 | 146 to 148 |
| O=C(O)C1=NN(c2ccccc2)C(=O)CC1 | 169 to 171 |
| Cc1cc(C)nc(-n2nc(C)c(CC(=O)O)c2C)n1 | 249 to 251 |
| O=C(O)C1CCCCN1Cc1ccc(F)cc1 (stereo not given) | 218 to 220 |
| Nc1cc(-c2cc(Cl)cc(Cl)c2)no1 | 132 to 134 |
| CN(C)C(=O)c1ccc(Cl)c(NC(=O)OCC(F)(F)F)c1 | 96 to 98 |
| Cc1cc(N)n(C2CCOCC2)n1 | 177 to 179 |
| COC(=O)C(=O)CC(=O)c1ccccc1F | 81 to 83 |
| O=C1C=C(Br)C(=O)N1c1ccccc1 | 159 to 161 |
| Oc1cccc2[nH]ncc12 | 164 to 166 |
| O=C(NNc1ccccc1)Nc1ccccc1 | 178 to 180 |
| Nc1cc(S(N)(=O)=O)ccc1S | 220 to 222 |
| CC1CNC(=Nc2ccc(C(C)C)cc2)S1 (stereo not given) | 109 to 111 |
| Cc1nc2ccc(Br)cc2c(Cl)c1C | 99 to 101 |
| O=C(O)CC12CC3CC(C1)CC(C(F)(F)F)(C3)C2 | 121 to 123 |
| Cn1ncc2c(Cl)nc(Cl)nc21 | 86 to 88 |
